# In PubChem BioAssay AID248 (DTP/NCI, 2004):
# “And” between values parts separate entries of the source, which are not always exact repeats. Identical values can stand only once. Inconclusive results and toxic doses are left out.
# System: L1210 leukemia ip in BDF1 mice, survival T/C
# Assay: NCI In Vivo Anticancer Drug Screen. Data for tumor model L1210 Leukemia (intraperitoneal) in B6D2F1 (BDF1) mice
# Conditions: higher = longer survival
# Outline: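 Value reflects the ratio of survival in compound-treated mice to survival in vehicle-treated controls, with both groups carrying the same transplanted tumor.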
# [1] = endpoint: mean survival time, dose: 50.0 mg/kg/injection, schedule: Q01DX001 (ip), vehicle: saline
# [2] = endpoint: mean survival time, dose: 100.0 mg/kg/injection, schedule: Q01DX001 (ip), vehicle: saline
# [3] = endpoint: mean survival time, dose: 200.0 mg/kg/injection, schedule: Q01DX001 (ip), vehicle: saline
# [4] = endpoint: mean survival time, dose: 400.0 mg/kg/injection, schedule: Q01DX001 (ip), vehicle: saline
# [5] = endpoint: mean survival time, dose: 25.0 mg/kg/injection, schedule: Q01DX009 (ip), vehicle: saline with Tween-80
# [6] = endpoint: mean survival time, dose: 50.0 mg/kg/injection, schedule: Q01DX001 (ip), vehicle: saline with Tween-80
# [7] = endpoint: mean survival time, dose: 100.0 mg/kg/injection, schedule: Q04DX002 (ip), vehicle: saline with Tween-80
# [8] = endpoint: mean survival time, dose: 200.0 mg/kg/injection, schedule: Q04DX002 (ip), vehicle: saline with Tween-80
# [9] = endpoint: mean survival time, dose: 100.0 mg/kg/injection, schedule: Q01DX009 (ip), vehicle: Klucel (hydroxypropylcellulose) (HPC)
# [10] = endpoint: mean survival time, dose: 100.0 mg/kg/injection, schedule: Q04DX003 (ip), vehicle: Klucel (hydroxypropylcellulose) (HPC)
# [11] = endpoint: mean survival time, dose: 200.0 mg/kg/injection, schedule: Q01DX009 (ip), vehicle: Klucel (hydroxypropylcellulose) (HPC)
# [12] = endpoint: mean survival time, dose: 400.0 mg/kg/injection, schedule: Q01DX009 (ip), vehicle: Klucel (hydroxypropylcellulose) (HPC)
# [13] = endpoint: mean survival time, dose: 100.0 mg/kg/injection, schedule: Q04DX003 (ip), vehicle: saline
# [14] = endpoint: mean survival time, dose: 200.0 mg/kg/injection, schedule: Q04DX003 (ip), vehicle: saline
compound,measurement,setting,value
Cn1cc2c(=O)n(O)c(=O)[nH]c2n1,T/C,[1],106 % of control
same,T/C,[2],100 % of control
same,T/C,[3],102 % of control
same,T/C,[4],102 % of control
CCCn1ccc(N)nc1=O,T/C,"endpoint: mean survival time, dose: 75.0 mg/kg/injection, schedule: Q01DX001 (ip), vehicle: Klucel (hydroxypropylcellulose) (HPC)",116 % of control
same,T/C,"endpoint: mean survival time, dose: 150.0 mg/kg/injection, schedule: Q01DX001 (ip), vehicle: Klucel (hydroxypropylcellulose) (HPC)",119 % of control
same,T/C,"endpoint: mean survival time, dose: 300.0 mg/kg/injection, schedule: Q01DX001 (ip), vehicle: Klucel (hydroxypropylcellulose) (HPC)",111 % of control
CC12CC3CC(Br)(C1)CC(C#N)(C3)C2 (centres undefined),T/C,"endpoint: mean survival time, dose: 6.0 mg/kg/injection, schedule: Q04DX002 (ip), vehicle: Klucel (hydroxypropylcellulose) (HPC)",109 % of control
same,T/C,"endpoint: mean survival time, dose: 12.0 mg/kg/injection, schedule: Q04DX002 (ip), vehicle: Klucel (hydroxypropylcellulose) (HPC)",98 % of control
same,T/C,"endpoint: mean survival time, dose: 25.0 mg/kg/injection, schedule: Q04DX002 (ip), vehicle: Klucel (hydroxypropylcellulose) (HPC)",94 % of control
CC(=O)CC(C)=NCCN=C(C)CC(C)=O.[Cu],T/C,"endpoint: mean survival time, dose: 6.0 mg/kg/injection, schedule: Q01DX009 (ip), vehicle: saline with Tween-80",97 % of control
same,T/C,"endpoint: mean survival time, dose: 12.0 mg/kg/injection, schedule: Q01DX009 (ip), vehicle: saline with Tween-80",98 % of control
same,T/C,"endpoint: mean survival time, dose: 12.5 mg/kg/injection, schedule: Q01DX001 (ip), vehicle: saline with Tween-80",94 % of control
same,T/C,"endpoint: mean survival time, dose: 12.5 mg/kg/injection, schedule: Q04DX003 (ip), vehicle: saline with Tween-80",93 % of control
same,T/C,"endpoint: mean survival time, dose: 25.0 mg/kg/injection, schedule: Q01DX001 (ip), vehicle: saline with Tween-80",91 % of control
same,T/C,[5],101 % of control
same,T/C,"endpoint: mean survival time, dose: 25.0 mg/kg/injection, schedule: Q04DX003 (ip), vehicle: saline with Tween-80",100 % of control
same,T/C,[6],91 % of control
same,T/C,"endpoint: mean survival time, dose: 50.0 mg/kg/injection, schedule: Q04DX003 (ip), vehicle: saline with Tween-80",88 % of control
O=[N+]([O-])C=C([SH2+])[SH2+].O=[N+]([O-])C=C([SH2+])[SH2+].[Pt+2].c1ccc(C[P+](c2ccccc2)(c2ccccc2)c2ccccc2)cc1,T/C,[1],95 % of control
same,T/C,[2],110 % of control
same,T/C,[3],96 % of control
CC1(C(O)CO)OCCO1 (centres undefined),T/C,"endpoint: mean survival time, dose: 25.0 mg/kg/injection, schedule: Q04DX002 (ip), vehicle: saline",110 % of control
same,T/C,"endpoint: mean survival time, dose: 50.0 mg/kg/injection, schedule: Q04DX002 (ip), vehicle: saline",103 % of control
same,T/C,"endpoint: mean survival time, dose: 200.0 mg/kg/injection, schedule: Q04DX002 (ip), vehicle: saline",107 % of control and 110 % of control
same,T/C,"endpoint: mean survival time, dose: 400.0 mg/kg/injection, schedule: Q04DX002 (ip), vehicle: saline",117 % of control
CCNC(=O)Nc1ccc(C)cc1,T/C,"endpoint: mean survival time, dose: 100.0 mg/kg/injection, schedule: Q01DX001 (ip), vehicle: carboxymethylcellulose (CMC)",105 % of control
same,T/C,"endpoint: mean survival time, dose: 200.0 mg/kg/injection, schedule: Q01DX001 (ip), vehicle: carboxymethylcellulose (CMC)",97 % of control
same,T/C,"endpoint: mean survival time, dose: 400.0 mg/kg/injection, schedule: Q01DX001 (ip), vehicle: carboxymethylcellulose (CMC)",103 % of control
C1=C(N2CCOCC2)CCCCC1,T/C,"endpoint: mean survival time, dose: 100.0 mg/kg/injection, schedule: Q01DX009 (ip), vehicle: saline",108 % of control
same,T/C,"endpoint: mean survival time, dose: 200.0 mg/kg/injection, schedule: Q01DX009 (ip), vehicle: saline",109 % of control
same,T/C,"endpoint: mean survival time, dose: 400.0 mg/kg/injection, schedule: Q01DX009 (ip), vehicle: saline",108 % of control
Cc1ccc(S(=O)(=O)C[n+]2ccccc2)cc1,T/C,[7],98 % of control
same,T/C,[8],94 % of control
CC(=O)NC1CCC2CCCCC2C1 (centres undefined),T/C,"endpoint: mean survival time, dose: 100.0 mg/kg/injection, schedule: Q01DX001 (ip), vehicle: Klucel (hydroxypropylcellulose) (HPC)",97 % of control
same,T/C,[9],103 % of control
same,T/C,[10],97 % of control
same,T/C,"endpoint: mean survival time, dose: 200.0 mg/kg/injection, schedule: Q01DX001 (ip), vehicle: Klucel (hydroxypropylcellulose) (HPC)",101 % of control
same,T/C,[11],95 % of control
same,T/C,"endpoint: mean survival time, dose: 200.0 mg/kg/injection, schedule: Q04DX003 (ip), vehicle: Klucel (hydroxypropylcellulose) (HPC)",99 % of control
same,T/C,"endpoint: mean survival time, dose: 400.0 mg/kg/injection, schedule: Q01DX001 (ip), vehicle: Klucel (hydroxypropylcellulose) (HPC)",101 % of control
same,T/C,[12],98 % of control
same,T/C,"endpoint: mean survival time, dose: 400.0 mg/kg/injection, schedule: Q04DX003 (ip), vehicle: Klucel (hydroxypropylcellulose) (HPC)",96 % of control
Cc1ccc(C(O)(c2ccccc2)C2C(c3ccccc3)N2C2CCCCC2)cc1 (centres undefined),T/C,"endpoint: mean survival time, dose: 100.0 mg/kg/injection, schedule: Q04DX003 (ip), vehicle: saline sonified",92 % of control
same,T/C,"endpoint: mean survival time, dose: 200.0 mg/kg/injection, schedule: Q04DX003 (ip), vehicle: saline sonified",87 % of control
same,T/C,"endpoint: mean survival time, dose: 400.0 mg/kg/injection, schedule: Q04DX003 (ip), vehicle: saline sonified",89 % of control
CCCCCCCCCCCCCCCCCCCCCC(=O)Nc1ccn(C2OC(CO)C(O)C2O)c(=O)n1 (centres undefined),T/C,"endpoint: median survival time, dose: 25.0 mg/kg/injection, schedule: Q01DX009 (ip), vehicle: saline with Tween-80",217 % of control
same,T/C,"endpoint: median survival time, dose: 50.0 mg/kg/injection, schedule: Q01DX009 (ip), vehicle: saline with Tween-80",234 % of control
same,T/C,"endpoint: median survival time, dose: 100.0 mg/kg/injection, schedule: Q01DX009 (ip), vehicle: saline with Tween-80",234 % of control
same,T/C,"endpoint: median survival time, dose: 200.0 mg/kg/injection, schedule: Q01DX009 (ip), vehicle: saline with Tween-80",382 % of control
same,T/C,"endpoint: median survival time, dose: 400.0 mg/kg/injection, schedule: Q01DX009 (ip), vehicle: saline with Tween-80",340 % of control
CN1CCN(C(=O)N2c3ccccc3Sc3ccccc32)CC1,T/C,"endpoint: mean survival time, dose: 12.5 mg/kg/injection, schedule: Q04DX003 (ip), vehicle: saline",99 % of control
same,T/C,"endpoint: mean survival time, dose: 25.0 mg/kg/injection, schedule: Q04DX003 (ip), vehicle: saline",95 % of control
same,T/C,"endpoint: mean survival time, dose: 50.0 mg/kg/injection, schedule: Q04DX003 (ip), vehicle: saline",101 % of control
same,T/C,[13],100 % of control
same,T/C,[14],92 % of control
CN1C2CCCCC1C1CCCCC2[N+]1(C)C,T/C,"endpoint: mean survival time, dose: 75.0 mg/kg/injection, schedule: Q01DX001 (ip), vehicle: saline",96 % of control
O=C(O/N=C1\C2CCC(C2)C1Cl)c1ccc([N+](=O)[O-])cc1 (centres undefined),T/C,[5],94 % of control
same,T/C,"endpoint: mean survival time, dose: 50.0 mg/kg/injection, schedule: Q01DX009 (ip), vehicle: saline with Tween-80",88 % of control
same,T/C,[10],102 % of control
c1ccc(-c2nc3nncn3nc2-c2ccccc2)cc1,T/C,[2],94 % of control
same,T/C,[3],99 % of control
same,T/C,[4],98 % of control
ClC1=C(Cl)C2(Cl)C3C4C=CC(C4)C3N1C2(Cl)Cl (centres undefined),T/C,[6],98 % of control
same,T/C,"endpoint: mean survival time, dose: 100.0 mg/kg/injection, schedule: Q01DX001 (ip), vehicle: saline with Tween-80",95 % of control
Fc1ccc(NC(=S)Nc2ccccc2)cc1,T/C,"endpoint: mean survival time, dose: 100.0 mg/kg/injection, schedule: Q04DX002 (ip), vehicle: Klucel (hydroxypropylcellulose) (HPC)",108 % of control
same,T/C,"endpoint: mean survival time, dose: 200.0 mg/kg/injection, schedule: Q04DX002 (ip), vehicle: Klucel (hydroxypropylcellulose) (HPC)",116 % of control
same,T/C,"endpoint: mean survival time, dose: 400.0 mg/kg/injection, schedule: Q04DX002 (ip), vehicle: Klucel (hydroxypropylcellulose) (HPC)",97 % of control
O=C(COc1ccc(Cl)c(Cl)c1)Nc1ccc[n+](Cc2cc(Cl)ccc2S(=O)(=O)F)c1,T/C,[2],97 % of control
same,T/C,[3],105 % of control
same,T/C,[4],94 % of control
CC(=O)OCC(=O)[C@@]1(O)CC[C@H]2[C@@H]3CCC4=CC(=O)C=C[C@]4(C)[C@H]3[C@@H](O)C[C@@]21C,T/C,"endpoint: mean survival time, dose: 50.0 mg/kg/injection, schedule: Q04DX003 (sc), vehicle: steriod suspending solution",97 % of control
same,T/C,"endpoint: mean survival time, dose: 100.0 mg/kg/injection, schedule: Q04DX003 (sc), vehicle: steriod suspending solution",94 % of control
same,T/C,"endpoint: mean survival time, dose: 200.0 mg/kg/injection, schedule: Q04DX003 (sc), vehicle: steriod suspending solution",96 % of control
same,T/C,"endpoint: mean survival time, dose: 400.0 mg/kg/injection, schedule: Q04DX003 (sc), vehicle: steriod suspending solution",106 % of control
CC(=O)C1(C)OC(c2ccc(F)cc2)=NC1=O (centres undefined),T/C,[2],102 % of control
same,T/C,[3],102 % of control
same,T/C,[4],98 % of control
CC(=O)OCC1(C[N+](C)(C)C)CCC1,T/C,[2],103 % of control
same,T/C,[13],95 % of control
same,T/C,[3],97 % of control
same,T/C,[14],94 % of control
same,T/C,[4],110 % of control
O=C1OC(/C=C/c2ccccc2)=NC/1=C\c1ccccc1O,T/C,[7],92 % of control
same,T/C,[8],92 % of control
same,T/C,"endpoint: mean survival time, dose: 400.0 mg/kg/injection, schedule: Q04DX002 (ip), vehicle: saline with Tween-80",89 % of control
O=C(Nc1ccccc1C(F)(F)F)N(CCO)C1CCCCC1,T/C,[9],100 % of control
same,T/C,[11],103 % of control
same,T/C,[12],101 % of control
